Source: the supplement of paper PMC13380429

Tests used:
[1] = test system: A549-ACE2 infected with SARS-CoV-2; test: cell count relative to DMSO; higher = less toxic; settings: 24 h
U2OS [2] = test: drug sensitivity score (DSS) for viability; higher = more toxic; extreme values may be limits of the assay; settings: 72 h
HepG2 [3] = test: as above; settings: 72 h
Vero E6 [4] = test: as above; settings: 72 h
Calu-3 [5] = test: as above; settings: 72 h
Caco-2 [6] = test: as above; settings: 72 h
A549-ACE2 [7] = test: phospholipidosis EC50; higher = less potent phospholipidosis inducer
[8] = test system: A549-ACE2 infected with SARS-CoV-2; test: SARS-CoV-2 infection rate relative to DMSO; higher = more infection; settings: 24 h
A549-ACE2 [9] = test: drug-induced phospholipidosis relative to tamoxifen; higher = more phospholipidosis
[10] = test system: A549-ACE2 infected with SARS-CoV-2; test: morphology score (similarity to uninfected cells); higher = more like uninfected cells; settings: 24 h
U2OS [11] = test: relative viability EC50 (midpoint between 100% and the lowest measured viability); higher = less toxic; settings: 72 h
Vero E6 [12] = test: as above; settings: 72 h
Calu-3 [13] = test: as above; settings: 72 h
Caco-2 [14] = test: as above; settings: 72 h
U2OS [15] = test: cell viability relative to DMSO; higher = less toxic; settings: 72 h
HepG2 [16] = test: as above; settings: 72 h
Vero E6 [17] = test: as above; settings: 72 h
Calu-3 [18] = test: as above; settings: 72 h
Caco-2 [19] = test: as above; settings: 72 h
HepG2 [20] = test: relative viability EC50 (midpoint between 100% and the lowest measured viability); higher = less toxic; settings: 72 h

C[C@@H]1CN(CC(=O)Nc2ccc3c(c2)Cc2cccc(-c4cc(=O)cc(N5CCOCC5)o4)c2S3)C[C@H](C)O1
Settings	SARS-CoV-2 infection rate [%]	cell count [%]	cell viability [%]	morphology score	phospholipidosis EC50 [µM]
A549-ACE2 [7], 72 h	–	–	–	–	20
Caco-2 [19], 1 nM	–	–	97.2	–	–
Caco-2 [19], 10 nM	–	–	103	–	–
Caco-2 [19], 100 nM	–	–	101	–	–
Caco-2 [19], 1000 nM	–	–	103	–	–
Caco-2 [19], 10000 nM	–	–	47.3	–	–
Calu-3 [18], 1 nM	–	–	99.4	–	–
Calu-3 [18], 10 nM	–	–	104	–	–
Calu-3 [18], 100 nM	–	–	99.4	–	–
Calu-3 [18], 1000 nM	–	–	105	–	–
Calu-3 [18], 10000 nM	–	–	99.3	–	–
HepG2 [16], 1 nM	–	–	105	–	–
HepG2 [16], 10 nM	–	–	101	–	–
HepG2 [16], 100 nM	–	–	97.8	–	–
HepG2 [16], 1000 nM	–	–	96	–	–
HepG2 [16], 10000 nM	–	–	54.3	–	–
U2OS [15], 1 nM	–	–	102	–	–
U2OS [15], 10 nM	–	–	104	–	–
U2OS [15], 100 nM	–	–	95.7	–	–
U2OS [15], 1000 nM	–	–	98.7	–	–
U2OS [15], 10000 nM	–	–	89.6	–	–
Vero E6 [17], 1 nM	–	–	103	–	–
Vero E6 [17], 10 nM	–	–	99.2	–	–
Vero E6 [17], 100 nM	–	–	103	–	–
Vero E6 [17], 1000 nM	–	–	104	–	–
Vero E6 [17], 10000 nM	–	–	80.9	–	–
[1], 0.3 µM	–	115	–	–	–
[1], 3 µM	–	103	–	–	–
[1], 10 µM	–	113	–	–	–
[1], 30 µM	–	104	–	–	–
[8], 0.3 µM	108	–	–	–	–
[8], 3 µM	98	–	–	–	–
[8], 10 µM	62	–	–	–	–
[8], 30 µM	68	–	–	–	–
[10], 0.3 µM	–	–	–	0.15	–
[10], 3 µM	–	–	–	0.09	–
[10], 10 µM	–	–	–	0.57	–
[10], 30 µM	–	–	–	0.45	–

Settings	drug sensitivity score	relative viability EC50 [µM]
Caco-2 [6]	2.5	–
Caco-2 [14]	–	3.48
Calu-3 [5]	0	–
Calu-3 [13]	–	> 10
HepG2 [3]	3	–
U2OS [2]	0	–
U2OS [11]	–	> 10
Vero E6 [4]	0.4	–
Vero E6 [12]	–	> 10

drug-induced phospholipidosis [%], A549-ACE2 [9]
Settings	0.3 µM	0.833333 µM	3.33333 µM	6.66667 µM	10 µM	30 µM
24 h	-1.06	-2.12	-2.36	1.18	7.55	66.8
48 h	-1.36	-2.9	-1.74	0	6.05	52.4
72 h	-1.2	-4.15	-2.75	0.476	6.88	56.1

Cc1cc(CN)cc(C)c1NC(=O)c1ccc(-c2cc(Cl)ccc2Cl)o1
Settings	SARS-CoV-2 infection rate [%]	cell count [%]	cell viability [%]	morphology score	phospholipidosis EC50 [µM]
A549-ACE2 [7], 24 h	–	–	–	–	2.39
A549-ACE2 [7], 48 h	–	–	–	–	3.42
A549-ACE2 [7], 72 h	–	–	–	–	4.24
Caco-2 [19], 1 nM	–	–	105	–	–
Caco-2 [19], 10 nM	–	–	101	–	–
Caco-2 [19], 100 nM	–	–	98.1	–	–
Caco-2 [19], 1000 nM	–	–	102	–	–
Caco-2 [19], 10000 nM	–	–	79.1	–	–
Calu-3 [18], 1 nM	–	–	104	–	–
Calu-3 [18], 10 nM	–	–	101	–	–
Calu-3 [18], 100 nM	–	–	104	–	–
Calu-3 [18], 1000 nM	–	–	102	–	–
Calu-3 [18], 10000 nM	–	–	60.1	–	–
HepG2 [16], 1 nM	–	–	106	–	–
HepG2 [16], 10 nM	–	–	103	–	–
HepG2 [16], 100 nM	–	–	97.8	–	–
HepG2 [16], 1000 nM	–	–	107	–	–
HepG2 [16], 10000 nM	–	–	66.7	–	–
U2OS [15], 1 nM	–	–	98	–	–
U2OS [15], 10 nM	–	–	102	–	–
U2OS [15], 100 nM	–	–	98.5	–	–
U2OS [15], 1000 nM	–	–	101	–	–
U2OS [15], 10000 nM	–	–	83.1	–	–
Vero E6 [17], 1 nM	–	–	103	–	–
Vero E6 [17], 10 nM	–	–	97.5	–	–
Vero E6 [17], 100 nM	–	–	105	–	–
Vero E6 [17], 1000 nM	–	–	96.6	–	–
Vero E6 [17], 10000 nM	–	–	96.8	–	–
[1], 0.3 µM	–	101	–	–	–
[1], 3 µM	–	120	–	–	–
[1], 10 µM	–	120	–	–	–
[1], 30 µM	–	1	–	–	–
[8], 0.3 µM	101	–	–	–	–
[8], 3 µM	34	–	–	–	–
[8], 10 µM	10	–	–	–	–
[8], 30 µM	43	–	–	–	–
[10], 0.3 µM	–	–	–	0.02	–
[10], 3 µM	–	–	–	0.84	–
[10], 10 µM	–	–	–	0.68	–
[10], 30 µM	–	–	–	-0.13	–

Settings	drug sensitivity score	relative viability EC50 [µM]
Caco-2 [6]	0.6	–
Caco-2 [14]	–	> 10
Calu-3 [5]	1.8	–
HepG2 [3]	1.2	–
U2OS [2]	0.3	–
U2OS [11]	–	> 10
Vero E6 [4]	0	–
Vero E6 [12]	–	> 10

drug-induced phospholipidosis [%], A549-ACE2 [9]
Settings	0.3 µM	0.833333 µM	3.33333 µM	6.66667 µM	10 µM
24 h	2.63	5.94	68	88.7	90.2
48 h	3.74	4.56	48.1	81.5	90.1
72 h	1.91	1.3	32.6	66.3	78.5

CC(C)(C)c1ccc(-c2nc3ccccc3[nH]2)cc1 [ZLN005]
Settings	SARS-CoV-2 infection rate, [8] [%]	cell count, [1] [%]	cell viability, Caco-2 [19] [%]	cell viability, Calu-3 [18] [%]	cell viability, HepG2 [16] [%]	cell viability, U2OS [15] [%]	cell viability, Vero E6 [17] [%]	morphology score, [10]
1 nM	–	–	91.8	87.7	94.6	101	92.8	–
10 nM	–	–	99.8	94.1	98.2	94.2	98.6	–
100 nM	–	–	97.1	105	96.2	97.7	94.1	–
0.3 µM	99	98	–	–	–	–	–	0.14
1000 nM	–	–	84	88.1	96.6	90.7	92.7	–
3 µM	87	113	–	–	–	–	–	0.37
10 µM	57	115	–	–	–	–	–	0.7
10000 nM	–	–	49.4	49.4	77.4	78.4	81.6	–
30 µM	32	110	–	–	–	–	–	0.77

Settings	drug sensitivity score	relative viability EC50 [µM]
Caco-2 [6]	4.9	–
Caco-2 [14]	–	1.4
Calu-3 [5]	4.6	–
Calu-3 [13]	–	1.6
HepG2 [3]	1.3	–
HepG2 [20]	–	> 10
U2OS [2]	1.3	–
U2OS [11]	–	> 10
Vero E6 [4]	0.6	–
Vero E6 [12]	–	> 10

drug-induced phospholipidosis [%], A549-ACE2 [9]
Settings	0.3 µM	0.833333 µM	3.33333 µM	6.66667 µM	10 µM	30 µM
24 h	3.54	-4.68	-5.18	-7.34	-8.03	-10.2
48 h	4.21	-3.33	-5.71	-7.4	-10.6	-12.3
72 h	2.86	-4.87	-1.84	-5.31	-5.63	-6.24
